Patent US20230346831A1, “METHODS FOR TREATING […] USING LOW DOSE CARBON MONOXIDE” (priority 2020, published 2023)
Values joined by “and” are separate entries in the source; they are usually repeats but may differ in a detail not shown here. Equal values may be shown once.

System: MCF7/TGL cells
Assay: metabolomic assay (polar metabolite profiling, mass spectrometry)
Assay type: cell-based, human
Conditions: MCF7/TGL cells treated with CO, replicates CO 1-3
Method: Extraction and analysis were performed with the same parameters as the method disclosed in FIG. 7.
7 × 10^6 cells were seeded in 10-cm cell culture plates with DMEM containing 10% FBS, 0.2 mM L-glutamine and 1% penicillin/streptomycin. Additionally, MCF7/TGL/pQ was cultured in media containing 0.5 µgml^-1 puromycin and 25 mM HEPES. After 16 hours of incubation, metabolites were extracted from the cells using 80% methanol. The remaining steps were carried out by Weill Cornell Medicine Proteomics and Metabolomics Core Facility according to M. D. Goncalves et al., Proc Natl Acad Sci USA 115, E743-E752 (2018). All data analyses were done using MetaboAnalyst 4.0 (www.metaboanalyst.ca/).
To investigate whether 250 ppm CO mimics hypoxia, the HiF1α protein levels were examined in CO treated MCF7/TGL and MDA-MB-231/TGL cells. […] To determine whether 250 ppm CO affects metabolism, polar metabolites were profiled using two breast cancer cell lines, MCF7/TGL and MDA-MB-231/TGL (FIGS. 7-9).

[C-]#[O+] [CO, Carbon monoxide]
Peak Height 2-Ketobutyric acid (HMDB00005): 4,031,318 and 4,391,029 and 5,247,754
Peak Height Deoxyuridine (HMDB00012): 4,052 and 3,614 and 4,205
Peak Height Carnosine (HMDB00033): 2,611,797 and 2,457,728 and 2,635,558
Peak Height Adenine (HMDB00034): 319,396 and 405,129 and 608,706
Peak Height Dihydrobiopterin (HMDB00038): 37,904,750 and 45,778,470 and 54,551,140
Peak Height Betaine (HMDB00043): 211,641,600 and 205,281,000 and 256,902,700
Peak Height Ascorbic acid (HMDB00044): 1,179,857 and 2,029,092 and 5,154,497
Peak Height Adenosine monophosphate (HMDB00045): 595,508 and 473,948 and 497,428
Peak Height Adenosine (HMDB00050): 14,622 and 14,037 and 23,296
Peak Height Argininosuccinic acid (HMDB00052): 180,070 and 286,271 and 472,100
Peak Height L-Carnitine (HMDB00062): 275,929,100 and 289,061,800 and 291,180,600
Peak Height Creatine (HMDB00064): 394,311,900 and 394,104,400 and 478,205,800
Peak Height cis-Aconitic acid (HMDB00072): 11,654,680 and 13,826,410 and 17,813,720
Peak Height Cytidine triphosphate (HMDB00082): 248,084 and 155,802 and 221,285
Peak Height Glycerophosphocholine (HMDB00086): 299,915,900 and 348,438,900 and 459,259,100
Peak Height Cytidine (HMDB00089): 104,165 and 69,105 and 173,745
Peak Height Dimethylglycine (HMDB00092): 6,279,555 and 7,567,884 and 7,137,536
Peak Height Citric acid (HMDB00094): 83,266,830 and 83,863,100 and 100,258,700
Peak Height Cytidine monophosphate (HMDB00095): 93,671 and 115,860 and 141,423
Peak Height Choline (HMDB00097): 183,705,300 and 191,547,400 and 211,305,800
Peak Height L-Cystathionine (HMDB00099): 13,082,840 and 16,491,010 and 22,978,520
Peak Height D-Glucose (HMDB00122): 24,253,400 and 27,009,740 and 49,287,950
Peak Height Glycine (HMDB00123): 97,069,490 and 60,912,580 and 81,769,040
Peak Height Fructose 6-phosphate (HMDB00124): 689,466 and 869,013 and 1,084,547
Peak Height Glutathione (HMDB00125): 166,253,500 and 185,818,800 and 224,175,500
Peak Height Glycerol3-phosphate (HMDB00126): 242,288 and 358,077 and 520,107
Peak Height D-Glucuronic acid (HMDB00127): 193,639 and 229,627 and 245,391
Peak Height Fumaric acid (HMDB00134): 5,149,166 and 6,086,688 and 8,204,115
Peak Height L-Glutamic acid (HMDB00148): 344,240,500 and 392,276,300 and 563,702,200
Peak Height Hypoxanthine (HMDB00157): 207,108 and 78,064 and 86,812
Peak Height L-Tyrosine (HMDB00158): 58,933,980 and 62,662,290 and 101,701,400
Peak Height L-Phenylalanine (HMDB00159): 287,943,500 and 304,931,600 and 425,257,300
Peak Height L-Alanine (HMDB00161): 24,164,680 and 26,271,210 and 37,606,940
Peak Height L-Proline (HMDB00162): 456,504,200 and 470,321,900 and 561,265,500
Peak Height L-Threonine (HMDB00167): 103,403,600 and 114,367,100 and 144,573,600
Peak Height L-Asparagine (HMDB00168): 42,196,450 and 47,225,620 and 55,751,170
Peak Height L-Isoleucine (HMDB00172): 339,480,000 and 333,493,200 and 481,854,600
Peak Height Inosinic acid (HMDB00175): 22,764 and 28,902 and 46,283
Peak Height L-Histidine (HMDB00177): 295,632,700 and 322,360,800 and 456,145,200
Peak Height L-Lysine (HMDB00182): 41,138,540 and 40,717,620 and 74,426,720
Peak Height Alpha-Lactose (HMDB00186): 261,525 and 290,474 and 303,327
Peak Height L-Serine (HMDB00187): 22,682,210 and 24,881,370 and 27,375,240
Peak Height L-Lactic acid (HMDB00190): 135,248,600 and 168,348,200 and 288,458,500
Peak Height L-Aspartic acid (HMDB00191): 12,945,220 and 18,829,880 and 30,552,150
Peak Height L-Acetylcarnitine (HMDB00201): 191,662,400 and 208,376,400 and 217,883,700
Peak Height N6-Acetyl-L-lysine (HMDB00206): 126,221 and 143,548 and 210,190
Peak Height Oxoglutaric acid (HMDB00208): 24,674,800 and 27,743,170 and 32,411,680
Peak Height Pantothenic acid (HMDB00210): 49,604,040 and 57,015,540 and 93,443,310
Peak Height Myoinositol (HMDB00211): 1,493,285 and 1,572,114 and 2,893,583
Peak Height Ornithine (HMDB00214): 3,323,027 and 3,678,113 and 4,669,739
Peak Height NADP (HMDB00217): 35,994 and 44,669 and 56,121
Peak Height Orotic acid (HMDB00226): 107,743 and 166,715
Peak Height Thiamine (HMDB00235): 13,320,550 and 15,145,370 and 21,979,980
Peak Height Pyruvic acid (HMDB00243): 6,830,386 and 7,616,124 and 9,628,515
Peak Height Riboflavin (HMDB00244): 8,515 and 36,944
Peak Height Taurine (HMDB00251): 213,761,300 and 213,696,600 and 188,154,600
Peak Height Succinic acid (HMDB00254): 3,099,054 and 3,989,967 and 6,160,312
Peak Height Thymine (HMDB00262): 7,867,191 and 9,149,847 and 12,133,270
Peak Height Phosphoenolpyruvic acid (HMDB00263): 3,181,575 and 5,081,852 and 6,959,276
Peak Height Pyroglutamic acid (HMDB00267): 70,921,790 and 82,143,660 and 125,886,000
Peak Height Thymidine (HMDB00273): 18,849 and 10,836 and 11,271
Peak Height Uridine triphosphate (HMDB00285): 972,321 and 740,370 and 1,159,635
Peak Height Uridine diphosphate glucose (HMDB00286): 3,510,195 and 3,063,631 and 4,862,560
Peak Height Uridine 5′-monophosphate (HMDB00288): 35,559 and 34,351 and 45,597
Peak Height Uric acid (HMDB00289): 2,364,329 and 2,512,157 and 4,422,182
Peak Height Uridine diphosphate-N-acetylglucosamine (HMDB00290): 38,715,250 and 42,157,110 and 45,820,290
Peak Height Xanthine (HMDB00292): 3,106,304 and 2,715,740 and 5,495,149
Peak Height Uridine 5′-diphosphate (HMDB00295): 297,075 and 234,752 and 314,015
Peak Height Uridine (HMDB00296): 51,402 and 29,724 and 61,581
Peak Height Uracil (HMDB00300): 621,176 and 684,209 and 956,261
Peak Height Urocanicacid (HMDB00301): 330,874 and 577,556 and 198,149
Peak Height 3-Hydroxymethylglutaric acid (HMDB00355): 5,766,106 and 4,010,368 and 3,996,699
Peak Height Allantoin (HMDB00462): 1,483,552 and 1,936,773 and 3,316,178
Peak Height Caprylic acid (HMDB00482): 3,978,947 and 2,718,335 and 2,586,172
Peak Height Aminoadipic acid (HMDB00510): 5,713,433 and 5,346,300 and 7,560,774
Peak Height L-Arginine (HMDB00517): 64,328,130 and 65,745,300 and 95,595,630
Peak Height Adenosine triphosphate (HMDB00538): 1,853,382 and 1,283,500 and 2,002,755
Peak Height Creatinine (HMDB00562): 20,992,210 and 21,746,470 and 37,545,350
Peak Height Galactonic acid (HMDB00565): 8,090,935 and 11,406,370 and 14,258,950
Peak Height D-Arabitol (HMDB00568): 250,315 and 263,626 and 418,856
Peak Height D-2-Hydroxyglutaric acid (HMDB00606): 460,608 and 570,887 and 905,587
Peak Height Gluconic acid (HMDB00625): 6,277,480 and 8,930,573 and 14,396,540
